What all share (type): functional, cell-based
For one assay, the system named is PC-3. As to the kind of experiment: Cytotoxicity against human PC3 cells assessed as reduction in cell viability by MTT assay.
A further assay has as its system HL-60. As to the kind of experiment: Cytotoxicity against human HL60 cells assessed as reduction in cell viability by trypan blue method.
A further assay deals with SGC-7901. As to the kind of experiment: Cytotoxicity against human SGC7901 cells assessed as reduction in cell viability by MTT assay.
Assay [1] can be described thus: Cytotoxicity against mouse Sp2/0-Ag14 cells.
Assay [2] in a line: Cytotoxicity against Med-merk carcinoma cells (unknown origin).
Where [3] appears, read: Homo sapiens, HL-60, read-out: IC50.
Where [4] appears, read: Homo sapiens, PC-3, read-out: IC50.

`O=c1c2ccccc2nc2n1CC[C@H]2O[C@@H]1O[C@H](CO[C@@H]2O[C@H](CO)[C@@H](O)[C@H](O)[C@H]2O)[C@@H](O)[C@H](O)[C@H]1O`: the IC50 result in the assay with PC-3 (pc-3), in the assay with HL-60 (hl-60) and in the assay on SGC-7901 was “Not Active” in each case.

As for `Nc1ccccc1CN1CC[C@H](O[C@@H]2O[C@H](CO[C@@H]3O[C@H](CO)[C@@H](O)[C@H](O)[C@H]3O)[C@@H](O)[C@H](O)[C@H]2O)C1=O`, the concentration for half-maximal inhibition (IC50) entry is “Not Active” in the assay with PC-3 (pc-3), 42.8 µM with HL-60 (setting [3]) and “Not Active” with SGC-7901.

Turning to `Nc1ccccc1CN1CC[C@H](O)C1=O`, the IC50 entry was “Not Active” with PC-3 (pc-3), 42.3 µM with HL-60 (setting [3]) and “Not Active” with SGC-7901.

In the case of `O=c1c2ccccc2nc2n1CC[C@@H]2O`, the concentration for half-maximal inhibition (IC50) result is “Not Active” with PC-3 (pc-3), 67.8 µM with HL-60 (setting [3]) and “Not Active” in the assay on SGC-7901.

For the compound `O[C@@H]1CCN2Cc3ccccc3N=C12`, the figures for the IC50 with PC-3 (setting [4]), with HL-60 (hl-60) and in the assay with SGC-7901 were 15.4 µM, “Not Active” and “Not Active”, respectively.

With `O=c1c2ccccc2nc2n1CC[C@@H]2O[C@@H]1O[C@H](CO)[C@@H](O)[C@H](O)[C@H]1O`, the IC50 result with PC-3 (pc-3), in the assay on HL-60 (hl-60) and in the assay with SGC-7901 was “Not Active” throughout.

Consider `O=c1c2cc(O)ccc2nc2n1CC[C@H]2O`, for which the IC50 result in the assay with PC-3 (pc-3), in the assay on HL-60 (hl-60) and in the assay on SGC-7901 was “Not Active” throughout.

Take `O=c1c2ccccc2nc2n1CCC2` [DEOXYVASICINONE]: the IC50 result with PC-3 (pc-3), in the assay with HL-60 (hl-60) and in the assay with SGC-7901 was “Not Active” throughout.

As to `O=c1c2ccccc2nc2n1CCC2O` (racemic), the IC50 in assay [1] worked out at 19.2 µM; in assay [2], 25.3 µM.

With `Nc1ccccc1CN1CC[C@@H](O[C@@H]2O[C@H](CO[C@@H]3O[C@H](CO)[C@@H](O)[C@H](O)[C@H]3O)[C@@H](O)[C@H](O)[C@H]2O)C1=O`, the IC50 result with PC-3 (pc-3), in the assay on HL-60 (hl-60) and with SGC-7901 was “Not Active” throughout.

Consider `O=c1c2ccccc2nc2n1CC[C@@H]2O[C@@H]1O[C@H](CO[C@@H]2O[C@H](CO)[C@@H](O)[C@H](O)[C@H]2O)[C@@H](O)[C@H](O)[C@H]1O`, for which the IC50 entry in the assay with PC-3 (pc-3), in the assay with HL-60 (hl-60) and in the assay with SGC-7901 was “Not Active” each time.

On to `Nc1ccccc1CN1CC[C@@H](O)C1=O`, for which the results for the IC50 entry in the assay on PC-3 (pc-3), with HL-60 (setting [3]) and with SGC-7901 were “Not Active”, 42.3 µM and “Not Active”, respectively.

`O=c1c2cc(O)ccc2nc2n1CC[C@@H]2O`: the IC50 entry in the assay on PC-3 (pc-3), in the assay with HL-60 (hl-60) and with SGC-7901 was “Not Active” throughout.

As to `O=c1[nH]c(CCCO)nc2ccccc12`, the IC50 entry in the assay with PC-3 (pc-3), in the assay with HL-60 (hl-60) and with SGC-7901 was “Not Active” throughout.

In the case of `O=c1c2ccccc2nc2n1CC[C@H]2O`, the IC50 entry in the assay on PC-3 (pc-3) is “Not Active”; with HL-60 (setting [3]), 67.8 µM; in the assay with SGC-7901, “Not Active”.

Take `O[C@H]1CCN2Cc3ccccc3N=C12` [VASICINE]: the half-maximal inhibitory concentration (IC50) is 15.4 µM with PC-3 (setting [4]), “Not Active” in the assay with HL-60 (hl-60) and “Not Active” with SGC-7901.

With `O=c1[nH]cnc2ccccc12` [QUINAZOLINONE], the IC50 result in the assay with PC-3 (pc-3), in the assay with HL-60 (hl-60) and in the assay on SGC-7901 was “Not Active” in each case.

For the compound `COC(=O)CCn1cnc2ccccc2c1=O`, the IC50 entry in the assay on PC-3 (pc-3), in the assay with HL-60 (hl-60) and in the assay with SGC-7901 was “Not Active” each time.

The record behind these values is ChEMBL document CHEMBL4177734, “Cytotoxic quinazoline alkaloids from the seeds of Peganum harmala” (Bioorg Med Chem Lett, 2018).
